Measured values reported in the supplement of paper PMC8967900.

Legend:
Assay in all cases: selective drug sensitivity score (sDSS, relative to normal bone marrow) (sDSS (score)); higher = more potent and effective on the cell line relative to normal bone marrow cells
Settings in all cases: 72 h
697 = system: 697
MOLT-16 = system: MOLT-16
HAL-01 = system: HAL-01
KARPAS-45 = system: KARPAS-45
NALL-1 = system: NALL-1
PF-382 = system: PF-382
CCRF-CEM = system: CCRF-CEM
MHH-CALL-4 = system: MHH-CALL-4
LC4-1 = system: LC4-1
KASUMI-2 = system: KASUMI-2
MHH-CALL-3 = system: MHH-CALL-3
KOPN-8 = system: KOPN-8
SEM cells = system: SEM cells
COG-LL-402h = system: COG-LL-402h
COG-LL-332h = system: COG-LL-332h
CCRF-HSB2 = system: CCRF-HSB2
SUP-B15 = system: SUP-B15
TMD5 = system: TMD5
RPMI-8402 = system: RPMI-8402
NALM-6 = system: NALM-6
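Further: ALL cell lines in 384-well plates, five doses spanning 10,000-fold, each plate scaled between vehicle and 100 µmol/L benzalkonium chloride controls, sDSS an adapted area-under-curve metric.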

Row | Compound | selective drug sensitivity score 697 | selective drug sensitivity score (MOLT-16) | selective drug sensitivity score (HAL-01) | selective drug sensitivity score (KARPAS-45) | selective drug sensitivity score (NALL-1) | selective drug sensitivity score (PF-382) | selective drug sensitivity score (CCRF-CEM) | selective drug sensitivity score (MHH-CALL-4) | selective drug sensitivity score (LC4-1) | selective drug sensitivity score (KASUMI-2) | selective drug sensitivity score (MHH-CALL-3) | selective drug sensitivity score (KOPN-8) | selective drug sensitivity score (SEM cells) | selective drug sensitivity score (COG-LL-402h) | selective drug sensitivity score (COG-LL-332h) | selective drug sensitivity score (CCRF-HSB2) | selective drug sensitivity score (SUP-B15) | selective drug sensitivity score (TMD5) | selective drug sensitivity score (RPMI-8402) | selective drug sensitivity score (NALM-6)
1 | CN[C@@H](C)C(=O)N[C@H]1CN(C(=O)CC(C)C)CC[C@H]2CC[C@@H](C(=O)NC(c3ccccc3)c3ccccc3)N2C1=O [AT-406] (top concentration 10000 nM) | -1.26 | -1.26 | 3.04 | -1.26 | 5.34 | -1.26 | 1.34 | -1.26 | -1.26 | 0.34 | -1.26 | -1.26 | -1.26 | -0.86 | 2.54 | 1.94 | -1.26 | 6.54 | -0.96 | -1.26
2 | Nc1nc2cc(-c3ccc4ncc(C(=O)N5CCOCC5)n4c3)ccc2o1 [Serabelisib] (top concentration 10000 nM) | 2.96 | -0.94 | -1.54 | 0.06 | -0.64 | 0.36 | 0.76 | 0.46 | 0.86 | 2.96 | -1.54 | 2.56 | 1.56 | -0.14 | -1.14 | -1.24 | 1.26 | -1.54 | -1.54 | -1.44
3 | CCn1cc(-c2ccnc3[nH]c(-c4cccc(CN(C)C)c4)cc23)c(-c2ccc(NC(=O)N(C)C)cc2)n1 (top concentration 1000 nM) | 20.5 | 14.9 | 1.46 | 24.1 | 13.1 | 9.26 | 18 | 7.46 | 23.4 | 17.7 | 2.06 | 11.2 | 17.9 | 17.8 | 19.3 | 15.5 | 23.9 | 13.5 | 8.86 | 13.8
4 | Cc1nc(C(=O)NCC(=O)O)c(O)c2ccc(Oc3ccccc3)cc12 [Roxadustat] (top concentration 10000 nM) | -0.92 | 0.88 | 1.08 | -1.12 | -1.12 | -0.52 | -1.02 | -1.12 | -1.12 | -0.92 | -1.12 | -0.92 | -1.12 | -1.12 | -1.02 | -0.52 | -1.12 | -1.12 | -0.82 | -1.12
5 | Cc1ccc(F)c(NC(=O)Nc2ccc(-c3cccc4[nH]nc(N)c34)cc2)c1 [Linifanib] (top concentration 1000 nM) | -1.12 | -1.12 | -1.12 | -1.12 | -1.12 | -1.12 | -1.02 | -1.12 | -1.12 | -1.12 | -1.12 | -1.12 | 1.28 | -1.12 | -1.12 | -1.12 | -1.12 | -1.12 | -1.12 | -1.12
6 | CC(C)(C)C[C@@H]1N[C@@H](C(=O)N[C@H]2CC[C@H](O)CC2)[C@H](c2cccc(Cl)c2F)[C@]12C(=O)Nc1cc(Cl)ccc12 (top concentration 10000 nM) | 11.2 | 12.5 | 12.2 | -2.64 | -7.64 | -3.94 | -3.94 | 8.96 | 12.4 | 11.7 | 16.9 | 12.9 | -1.94 | 13.4 | 8.66 | 9.06 | 20.4 | 9.16 | -3.34 | 6.26
7 | N#Cc1ccnc(N2C(=O)CC[C@H]2C(=O)N(c2cncc(F)c2)[C@H](C(=O)NC2CC(F)(F)C2)c2ccccc2Cl)c1 [Ivosidenib] (top concentration 10000 nM) | 0.1 | 1 | 3.2 | 0.5 | 0 | 0.8 | 1 | 0 | 0 | 0.6 | 0 | 0.2 | 0 | 0 | 1 | 1.6 | 0 | 1.8 | 0.8 | 0
8 | CC1(C)NC(=O)N(c2ccc([N+](=O)[O-])c(C(F)(F)F)c2)C1=O [Nilutamide] (top concentration 10000 nM) | 0.22 | 2.72 | 2.82 | -0.48 | 7.02 | -0.08 | -0.48 | 2.02 | -0.48 | -0.48 | -0.48 | -0.48 | -0.48 | -0.48 | -0.48 | -0.48 | -0.48 | 3.42 | -0.18 | 1.82
9 | CCC(C)(C)C(=O)O[C@H]1C[C@@H](C)C=C2C=C[C@H](C)[C@H](CC[C@@H]3C[C@@H](O)CC(=O)O3)[C@H]21 [Simvastatin] (top concentration 10000 nM) | -0.22 | 2.18 | 3.08 | 2.58 | 3.48 | 0.08 | 2.38 | 2.58 | 2.18 | -0.72 | 6.08 | 4.48 | 1.58 | 0.08 | 0.68 | 0.08 | -0.72 | 5.78 | 2.08 | 0.08
10 | Nc1ncnc2c1c(COc1cccc(Cl)c1)nn2C1CCOCC1 (top concentration 10000 nM) | 0.26 | -0.64 | 4.06 | 0.26 | -0.64 | -0.24 | -0.44 | -0.64 | 0.26 | 2.46 | 0.66 | 5.66 | -0.64 | 1.56 | -0.14 | 2.96 | 0.16 | -0.64 | 0.46 | -0.54
11 | COc1cc2c(Oc3ccc4[nH]c(C)cc4c3F)ncnc2cc1OCCCN1CCCC1 [Cediranib] (top concentration 1000 nM) | 0.9 | 0 | 5.7 | 0.2 | 0 | 0 | 0.1 | 0 | 0 | 0 | 0 | 0 | 0.2 | 0 | 0 | 3.4 | 0 | 3.6 | 0 | 0
12 | CC1=C2C[C@H]3[C@@H](CC[C@@H]4C[C@H](NS(C)(=O)=O)CC[C@@]43C)[C@@H]2CC[C@@]2(C1)O[C@@H]1C[C@H](C)CN[C@H]1[C@H]2C [Saridegib] (top concentration 10000 nM) | 1.24 | -0.26 | 1.14 | 3.44 | -0.26 | 0.34 | -0.46 | 3.14 | 0.54 | 5.04 | 0.34 | -1.16 | -1.16 | 0.94 | -0.06 | 0.24 | 0.64 | 1.74 | 0.54 | -1.16
13 | C=CCN(/C=C1/C(=O)O[C@H](COC)[C@@]2(C)C1=C(O)C(=O)C1=C2[C@H](OC(C)=O)C[C@]2(C)C(=O)CC[C@@H]12)CC=C [Sonolisib] (top concentration 10000 nM) | 0.24 | -0.76 | 1.94 | -0.76 | -0.76 | -0.76 | -0.66 | -0.06 | -0.56 | -0.76 | -0.76 | -0.16 | -0.76 | -0.76 | -0.66 | -0.76 | -0.76 | -0.76 | -0.76 | -0.56
14 | Oc1ccc2c(c1)CC[C@H](c1ccccc1)[C@@H]2c1ccc(OCCN2CCCC2)cc1 [Lasofoxifene] (top concentration 1000 nM) | -1.28 | 1.12 | -0.08 | -1.28 | -1.28 | -0.98 | -1.08 | -1.28 | -1.28 | -1.28 | -1.28 | -1.28 | -1.28 | -0.18 | -1.28 | -1.28 | -1.28 | -1.28 | -1.28 | -1.28
15 | NC(=O)c1cccc(-c2cccc(OC(=O)NC3CCCCC3)c2)c1 [URB597] (top concentration 1000 nM) | -0.36 | 2.34 | 0.64 | -0.46 | -0.46 | -0.46 | -0.46 | -0.46 | 0.44 | -0.46 | -0.46 | -0.36 | -0.46 | -0.46 | -0.46 | -0.46 | 0.94 | -0.46 | -0.46 | 2.44
16 | COc1cccc(-c2ccc(NC(=O)C3=C(C(=O)O)CCC3)c(F)c2)c1 [Vidofludimus] (top concentration 10000 nM) | 6 | 5.4 | 2 | 3.9 | 1.9 | 4.8 | 3.1 | 2.8 | 6.1 | 6.2 | 0.7 | 5.5 | 5.6 | 0 | 4.9 | 4 | 6 | 0 | 3.9 | 3.4
